According to PubChem BioAssay (NCI):
Several values for one entry are separate records, joined by “and”; a condition that tells them apart may be missing. Equal entries are not always repeated.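 Exposure lasted 48 hours, with cells grown in 96-well plates and compounds tested at five concentrations. Here, GI50 denotes the concentration required for 50% inhibition of growth. TGI: concentration producing complete growth inhibition.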

Key:
Test in all cases: growth of human tumour cells (NCI), 48 h
CAKI-1 renal = tested on: CAKI-1 renal
KM12 colon = tested on: KM12 colon
DU-145 prostate = tested on: DU-145 prostate
M14 melanoma = tested on: M14 melanoma
SF-539 CNS = tested on: SF-539 CNS
HS 578T breast = tested on: HS 578T breast
A549 NSCLC = tested on: A549 NSCLC
CCRF-CEM leukemia = tested on: CCRF-CEM leukemia
SF-268 CNS = tested on: SF-268 CNS
NCI-H460 lung = tested on: NCI-H460 lung

SMILES	TGI (CAKI-1 renal)	TGI (KM12 colon)	TGI (DU-145 prostate) [µM]	TGI (M14 melanoma) [µM]	TGI (SF-539 CNS)	TGI (HS 578T breast) [µM]	TGI (A549 NSCLC)	TGI (CCRF-CEM leukemia)	TGI (SF-268 CNS)	TGI (NCI-H460 lung)	GI50 (CAKI-1 renal) [µM]	GI50 (KM12 colon) [µM]	GI50 (DU-145 prostate) [µM]	GI50 (M14 melanoma) [µM]	GI50 (SF-539 CNS) [µM]	GI50 (HS 578T breast) [µM]	GI50 (A549 NSCLC) [µM]	GI50 (CCRF-CEM leukemia) [µM]	GI50 (SF-268 CNS) [µM]	GI50 (NCI-H460 lung) [µM]
C/C(=C\COc1ccc2ccc(=O)oc2c1)CCC(=O)C(C)(C)O	> 100 µM	41 µM	> 100	61.2	48.5 µM	78.2	> 100 µM	46.7 µM	> 100 µM	> 100 µM										
Cc1cncc2cccc(S(=O)(=O)N3CCCNC[C@@H]3C)c12	> 100 µM	> 100 µM	> 100	> 100	> 56.7 µM	> 100	> 100 µM	> 100 µM	> 81.8 µM	> 100 µM	5.91	15.2	36.1	> 93.4	3.17	1.51	14.6	20.3	4.91	8.81
O=C(Nc1ccc(I)cc1F)c1cc(F)ccc1O	2.86 µM	6.23 µM	> 100	3.26	7.07 µM	5.29	> 100 µM	12.4 µM	> 31.1 µM	> 27.7 µM	0.342	2.21	0.655	0.407	0.444	0.44	2.24	1.85	0.513	0.456
NC(=S)c1cn(C2OC(CO)C(O)C2O)c2ncnc(N)c12 (stereo unspecified)	2.22 µM	0.205 µM	5.44	0.354	1.55 µM	2.54	> 100 µM	0.507 µM	3.4 µM	8.15 µM	0.221	0.0262	0.217	0.0989	0.27	0.254	0.266	0.153	0.284	0.212
O=C(CN1CCN(c2cc3c(cc2F)c(=O)c(C(=O)O)cn3C2CC2)CC1)Nc1ccc(C(=O)/C=C/c2ccccc2)cc1	5.32 µM	> 100 µM	> 100	> 100	> 100 µM	> 100		> 100 µM	> 100 µM	> 100 µM	1.76	4.11	3.74	5.22	3.6	4.99		4.09	4.13	3.17
COC(=O)[C@@H](C)C[C@H](Cc1ccccc1)NC(=O)c1csc([C@@H](C[C@H](C(C)C)N(C)C(=O)[C@@H](NC(=O)CN(C)C)C2CC2)OC(C)=O)n1	> 16.5 µM	> 10.5 µM			0.0925 µM	> 16.5	> 16.5 µM	> 3.28 µM	> 16.5 µM	> 16.5 µM	1.3	0.0215	0.0169	0.0185	0.022	0.0263	0.24	0.0154	0.0373	0.0291
CCCCCCCC(=O)O[C@H]1[C@H]2[C@@H](CC1(C)C)C(=O)[C@]13O[C@H]1C(=O)[C@]1(CO1)[C@]23C	5.82 µM and 5.58 µM	40.3 µM and 21.5 µM	27.9	11.3	12.7 µM and 21.3 µM	> 100	38.2 µM and 63.6 µM	3.57 µM and 1.58 µM	23.1 µM and 16.2 µM	42.6 µM and 12.8 µM		19			7.72		22.5	0.593	8.17	20
Cc1cccc(Cc2cnc(NC(=O)/C=C/c3ccco3)s2)c1	> 100 µM	> 100 µM	> 100	> 100	0.0752 µM	> 100	> 100 µM	> 100 µM	> 100 µM	> 100 µM	0.0459	0.039	0.0382	0.031	0.026	0.0313	0.0591	0.0433	0.181	0.0359
N#CCCCCCn1c2ccccc2c2c3c(c4c5ccccc5[nH]c4c21)C(=O)N(O)C3=O	4.01 µM	3.39 µM	12.2	2.51	2.05 µM	> 100	8.12 µM		48.1 µM	4.96 µM	1.85	1.37	1.06	0.595	0.632	4.77	2.78		0.957	1.19
N#CSc1cc(-c2nc3ccccc3o2)ccc1N	61.9 µM	27.1 µM	> 100	80.4	45.3 µM	63.6	> 53 µM	30.2 µM	83.4 µM	> 100 µM	25.5	6.54	> 67.7	26.2	22.4	11.3	2.42	10.6	22.6	24
Cn1cc(C2=C(c3cccc(Cl)c3)C(=O)NC2=O)c2ccccc21	> 25 µM	> 25 µM	> 25	23	> 25 µM	> 25	> 25 µM	> 25 µM	> 25 µM	> 25 µM	> 17	> 25	> 25	8.03	> 25	7.28	> 25	> 25	> 25	> 22.7
CCN1CCN(c2nc(NNC(=O)c3cccc(OC)c3)nc(N3CCN(C(c4ccccc4)c4ccccc4)CC3)n2)CC1	3.1 µM	5.48 µM	7.29	3.31	3 µM	4.43	> 100 µM	> 100 µM	4.2 µM	3.39 µM	1.54	2.28	2.67	1.67	1.65	1.89	3.05	2.6	1.95	1.75
S=C1NC2=C(CCOc3c2ccc2ccccc32)C(c2ccc(Cl)cc2)N1 (stereo unspecified)	72.5 µM	> 100 µM	> 100	> 100	56.9 µM	73.5	> 100 µM	> 100 µM	> 100 µM	> 100 µM	32.5	47.5	27.9	54.3	20.8	21.5	45.1	30.6	39.2	30.8
BrCC[N+]12CCCN1CCC2	2.44 µM	> 94.6 µM	> 100	24.7	32.9 µM	26.9	> 81.8 µM	4.87 µM	58.9 µM	48.9 µM										
C[C@@H]1CC[C@H]2C(CN(C)CC3=C(C(F)(F)F)O[C@@H]4O[C@@]5(C)CC[C@H]6[C@H](C)CC[C@@H]3[C@@]46OO5)=C(C(F)(F)F)O[C@@H]3O[C@@]4(C)CC[C@@H]1[C@]32OO4	18.2 µM	20.1 µM	16.8	> 100	> 100 µM		> 45.4 µM	> 42.9 µM	> 95.7 µM	> 56.9 µM	3.19	0.381	2.69	2.69	0.488	2.25	1.58	1.31	2.82	1.32
O=C(Nc1ccc(Oc2cccc(Cl)c2)c(Cl)c1)c1cccnc1	36.6 µM	12 µM	36	29	7.54 µM	35.5	> 50 µM	> 50 µM	46.6 µM	19.1 µM	2.63	0.782	2.15	1.38	1.49	1.83	2.08	1.89	3.71	1.88
COc1cc(C2CC(c3cc(Cl)c(C)cc3O)=NN2c2ccc(S(N)(=O)=O)cc2)cc(OC)c1OC (stereo unspecified)	16.9 µM	5.1 µM	11.2	4.29	3.37 µM	7.02	15.5 µM	> 100 µM	34.2 µM	3.87 µM	2.55	2.28	3.4	2.02	1.77	2.21	4	4.51	4.29	2.06
O=C(O)CNCc1c2ccccc2nc2ccccc12	> 90.8 µM	> 100 µM	> 100	> 100	87.2 µM	> 100	> 100 µM	41.2 µM	> 100 µM	> 86.7 µM										
O=C1c2ccccc2-c2c1c1ccccc1c(=O)n2CCCNCCO	3.34 µM	4 µM	4.72	3	2.96 µM	5.04	12.8 µM	1.11 µM	8.85 µM	1.56 µM	0.438	0.485	0.189	1.21	0.578	0.589	0.267	0.165	0.796	0.111
CCN(CC)CCn1nc2c3c(cccc3c1=O)-c1ccccc1-2	> 50 µM	> 50 µM	> 50	13.1	11.7 µM	> 50	19.8 µM	45.9 µM	21.3 µM	> 50 µM	1.39	2.84	2.11	2.15	2.78	11.2	1.05	2.08	2.87	1.49
CCCCOc1nc2ccccc2cc1C1CNC(=O)c2ccccc2N1 (stereo unspecified)	23.6 µM	72.5 µM	12	9.03	6.86 µM	19	15.9 µM	18.8 µM	> 48.5 µM	11.5 µM	3.11	3.31	3.19	1.53	2.3	2.63	4.25	2.93	4.24	3.16
COC(=O)CCCCCCCCC(=O)c1c(C)[nH]c(/C=C2\N=C(c3ccc[nH]3)C=C2OC)c1C	> 87.7 µM	> 100 µM	> 100	> 21.3	> 100 µM	> 100	> 50.2 µM	> 100 µM	> 100 µM	> 100 µM	26.6	> 69.9	32.1	2.64	> 55.1	> 33	5.18	2.3	> 20.6	3.57
O=C(O)c1ccccc1/C=C1/Nc2ccccc2C1=O	> 100 µM	> 100 µM	> 100	> 100	> 100 µM	> 100	> 100 µM	> 100 µM	> 100 µM	> 100 µM										
O=C(c1nc2ccccc2[nH]1)C1C(c2cccc([N+](=O)[O-])c2)C2CC3CCCCC3N2[C@@]12C(=O)Nc1cc(Cl)ccc12 (stereo partly specified)	3.94 µM	3.5 µM	3.26		3.19 µM	4.41	6.88 µM	> 100 µM	5.43 µM		1.43	1.63	1.55		1.69	1.63	2.34	3.11	2.11	
Cn1ccnc1C(=O)/C=C/c1ccc(CC(=O)Nc2cc(F)c(F)c(F)c2)cc1	7.54 µM	5.51 µM	4.87	8.45	4.68 µM	> 25	20.2 µM		9.57 µM	11.8 µM	2.27	1.58	1.67	3.68	1.5	10.8	1.57		1.78	1.49
CCc1cc(Nc2nccc(-c3c(-c4ccc(OC)c(C(=O)Nc5c(F)cccc5F)c4)nc4ccccn34)n2)c(OC)cc1N1CCC(N2CCN(S(C)(=O)=O)CC2)CC1	> 100 µM	> 100 µM	> 100	> 100	> 100 µM	> 100	> 100 µM		> 100 µM	> 100 µM	> 100	> 100	> 100	> 58.1	> 100	> 100	> 48.3		> 100	> 71.7
